# From US7273885B2, “Inhibitors of serine proteases, particularly HCV NS3-NS4A protease” (Vertex Pharmaceuticals Incorporated, priority 2002, dated 2007)
# Where two headings read alike, the source gives them in different places. *1 amine or outer side, *2 acyl side, *3 side chain or, on linkers, in order; H or OH if unused. Where a SMILES comes first, the peptide text is derived from it. [ ]: non-standard residue; d: D form. The star is where a group is joined. Oic = O=C(O)[C@@H]1C[C@@H]2CCCC[C@@H]2N1; NH(1S-phenylethyl) = C[C@H](N*)c1ccccc1; X1 = CCCC(N[*:1])C(=O)C(=O)[*:2]; Chg = N[C@H](C(=O)O)C1CCCCC1; Tle = CC(C)(C)[C@H](N)C(=O)O; Dap = NC[C@H](N)C(=O)O; Moc = COC(=O)*
# Legend:
# [1] = test system: Cells containing hepatitis C virus (HCV) replicon; experiment: HCV replicon cell assay (Taqman RT-PCR of HCV RNA); assay type: cell-based
# Experimental: HCV Replicon Cell Assay Protocol
# Cells containing hepatitis C virus (HCV) replicon were maintained in DMEM containing 10% fetal bovine serum (FBS), 0.25 mg per ml of G418, with appropriate supplements (media A).
# On day 1, replicon cell monolayer was treated with a trypsin:EDTA mixture, removed, and then media A was diluted into a final concentration of 100,000 cells per ml wit. 10,000 cells in 100 ul were plated into each well of a 96-well tissue culture plate, and cultured overnight in a tissue culture incubator at 37° C.
# On day 2, compounds (in 100% DMSO) were serially diluted into DMEM containing 2% FBS, 0.5% DMSO, with appropriate supplements (media B). The final concentration of DMSO was maintained at 0.5% throughout the dilution series.
# Media on the replicon cell monolayer was removed, and then media B containing various concentrations of compounds was added. Media B without any compound was added to other wells as no compound controls.
# Cells were incubated with compound or 0.5% DMSO in media B for 48 hours in a tissue culture incubator at 37° C. At the end of the 48-hour incubation, the media was removed, and the replicon cell monolayer was washed once with PBS and stored at −80° C. prior to RNA extraction.
# Culture plates with treated replicon cell monolayers were thawed, and a fixed amount of another RNA virus, such as Bovine Viral Diarrhea Virus (BVDV) was added to cells in each well. RNA extraction reagents (such as reagents from RNeasy kits) were added to the cells immediately to avoid degradation of RNA. Total RNA was extracted according the instruction of manufacturer with modification to improve extraction efficiency and consistency. Finally, total cellular RNA, including HCV replicon RNA, was eluted and stored at −80° C. until further processing.
# A Taqman real-time RT-PCR quantification assay was set up with two sets of specific primers and probe. One was for HCV and the other was for BVDV. Total RNA extractants from treated HCV replicon cells was added to the PCR reactions for quantification of both HCV and BVDV RNA in the same PCR well. Experimental failure was flagged and rejected based on the level of BVDV RNA in each well. The level of HCV RNA in each well was calculated according to a standard curve run in the same PCR plate. The percentage of inhibition or decrease of HCV RNA level due to compound treatment was calculated using the DMSO or no compound control as 0% of inhibition. The IC50 (concentration at which 50% inhibition of HCV RNA level is observed) was calculated from the titration curve of any given compound.
# [2] = molecular target: HCV NS3-NS4A protease (tNS3 with KK4A) (Hepatitis C virus genotype 1a, UniProt P27958); experiment: HCV Ki assay (HPLC microbore separation of 5AB substrate and products); assay type: biochemical
# Sequence of HCV NS3-NS4A protease (tNS3 with KK4A) (P27958 1027-1208): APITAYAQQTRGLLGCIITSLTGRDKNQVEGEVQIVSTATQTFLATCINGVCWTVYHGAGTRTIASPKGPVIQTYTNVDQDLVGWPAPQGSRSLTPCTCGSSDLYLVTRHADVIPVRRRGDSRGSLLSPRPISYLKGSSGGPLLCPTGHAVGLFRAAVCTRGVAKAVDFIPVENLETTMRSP
# Experimental: HPLC Microbore Method for Separation of 5AB Substrate and Products
# • Substrate: • NH2-Glu-Asp-Val-Val-(alpha)Abu-Cys-Ser-Met-Ser-Tyr-COOH
# A stock solution of 20 mM 5AB (or concentration of your choice) was made in DMSO w/ 0.2M DTT. This was stored in aliquots at −20 C.
# Buffer: 50 mM HEPES, pH 7.8; 20% glycerol; 100 mM NaCl
# Total assay volume was 100 μL
# The buffer, KK4A, DTT, and tNS3 were combined; distributed 78 μL each into wells of 96 well plate. This was incubated at 30 C for ˜5–10 min.
# 2.5 μL of appropriate concentration of test compound was dissolved in DMSO (DMSO only for control) and added to each well. This was incubated at room temperature for 15 min.
# Initiated reaction by addition of 20 μL of 250 μM 5AB substrate (25 μM concentration is equivalent or slightly lower than the Km for 5AB).
# Incubated for 20 min at 30 C.
# Terminated reaction by addition of 25 μL of 10% TFA
# Transferred 120 μL aliquots to HPLC vials
# Separated SMSY product from substrate and KK4A by the following method:
# Microbore Separation Method:
# Instrumentation: Agilent 1100
# • Degasser G1322A • Binary pump G1312A • Autosampler G1313A • Column thermostated chamber G1316A • Diode array detector G1315A Column:
# Phenomenex Jupiter; 5 micron C18; 300 angstroms; 150×2 mm; P/O 00F-4053-B0 • Column thermostat: 40 C • Injection volume: 100 μL • Solvent A=HPLC grade water+0.1% TFA • Solvent B=HPLC grade acetonitrile+0.1% TFA
# • Stop time: 17 min • Post-run time: 10 min.
# [3] = 50% inhibition of HCV RNA level, 48-hour incubation, HCV replicon cells, read-out: IC50
Structure (SMILES),"IC50 [1, 3]",Ki [2],IC50 ([1]; 48 h)
CCC[C@H](NC(=O)[C@@H]1C[C@@H]2CCCC[C@@H]2N1C(=O)[C@@H](NC(=O)[C@@H](NC(=O)c1cnc2ccccc2n1)C1CCCCC1)C(C)(C)C)C(=O)C(=O)NC1CC1 [Compound 35a],1000 to 5000 nM,< 500 nM,
CCCC(NC(=O)[C@@H]1C[C@@H]2CCCC[C@@H]2N1C(=O)[C@@H](NC(=O)[C@@H](NC(=O)[C@H](CNC(=O)OC)NC(=O)OC)C1CCCCC1)C(C)(C)C)C(=O)C(=O)N[C@@H](C)c1ccccc1 (stereo partly drawn) [Compound 9a] (Moc-[Dap](Moc)[Chg][Tle][Oic][X1]-{NH(1S-phenylethyl)}),< 500 nM,< 500 nM,
CCC[C@H](NC(=O)[C@@H]1C[C@@H]2CCCC[C@@H]2N1C(=O)[C@@H](NC(=O)[C@@H](NC(=O)c1[nH]c(C)c(C(C)=O)c1-c1ccccc1)C1CCCCC1)C(C)(C)C)C(=O)C(=O)NC1CC1 [Compound 53a],< 500 nM,< 500 nM,
CCC[C@H](NC(=O)[C@@H]1C[C@@H]2CCCC[C@@H]2N1C(=O)[C@@H](NC(=O)[C@@H](NC(=O)c1cc([N+](=O)[O-])n[nH]1)C1CCCCC1)C(C)(C)C)C(=O)C(=O)NC1CC1 [Compound 14a],1000 to 5000 nM,< 500 nM,
"CCC[C@H](NC(=O)[C@@H]1C[C@@H]2CCCC[C@@H]2N1C(=O)[C@@H](NC(=O)[C@@H](NC(=O)c1[nH]c2ccccc2c1C(C)=O)C1CCCCC1)C(C)(C)C)C(=O)C(=O)NC1CC1 [Compound 39a, 3-Acetyl-1H-indole-2-carboxylic acid (cyclohexyl-{1-[2-(1-cyclopropylaminooxalyl-butylcarbamoyl)-octahydro-indole-1-carbonyl]-2,2-dimethyl-propylcarbamoyl}-methyl)-amide]",< 500 nM,< 500 nM,
CCC[C@H](NC(=O)[C@@H]1C[C@@H]2CCCC[C@@H]2N1C(=O)[C@@H](NC(=O)[C@@H](NC(=O)c1ccco1)C1CCCCC1)C(C)(C)C)C(=O)C(=O)NC1CC1 [Compound 27a],1000 to 5000 nM,< 500 nM,
CCC[C@H](NC(=O)[C@@H]1C[C@@H]2CCCC[C@@H]2N1C(=O)[C@@H](NC(=O)[C@@H](NC(=O)C1(O)CCCC1)C1CCCCC1)C(C)(C)C)C(=O)C(=O)NC1CC1 [Compound 22a],1000 to 5000 nM,500 to 1000 nM,
CCC[C@H](NC(=O)[C@@H]1C[C@@H]2CCCC[C@@H]2N1C(=O)[C@@H](NC(=O)[C@@H](NC(=O)[C@@H]1Cc2ccccc2N1)C1CCCCC1)C(C)(C)C)C(=O)C(=O)NC1CC1 [Compound 46a],1000 to 5000 nM,< 500 nM,
CCC[C@H](NC(=O)[C@@H]1C[C@@H]2CCCC[C@@H]2N1C(=O)[C@@H](NC(=O)[C@@H](NC(=O)C(=O)Nc1ccccc1)C1CCCCC1)C(C)(C)C)C(=O)C(=O)NC1CC1 [Compound 21a],,< 500 nM,< 500 nM
CCC[C@H](NC(=O)[C@@H]1C[C@@H]2CCCC[C@@H]2N1C(=O)[C@@H](NC(=O)[C@@H](NC(=O)[C@@](C)(O)c1ccccc1)C1CCCCC1)C(C)(C)C)C(=O)C(=O)NC1CC1 [Compound 19a],500 to 1000 nM,< 500 nM,
